Laboratory results taken from ChEMBL document CHEMBL4190217, “Botrysphones A-C and Botrysphins A-F, Triketides and Diterpenoids from the Fungus Botrysphaeria laricina” (J Nat Prod, 2017).

Tests used:
Format in all cases: cell-based
[1] = Cytotoxicity against mouse Hepa1c1c7 cells assessed as reduction in cell viability by MTT assay; details: Hepa-1c1c7
[2] = Cytotoxicity against mouse Hepa1c1c7 cells assessed as reduction in cell viability at 0.125 uM by MTT assay
[3] = Cytotoxicity against mouse Hepa1c1c7 cells assessed as reduction in cell viability at 2.5 uM by MTT assay

SMILES	IC50 [1] [µM]	Activity [2]	Activity [3]
C=C[C@@]1(C)CC(=O)C2=C(CC[C@H]3C(C)(C)CCC[C@]23C)[C@H]1O	> 50	–	–
C=C[C@]1(C)C=C2C(=O)[C@@]3(O)OC(=O)[C@@]4(CCCC(C)(C)[C@H]34)[C@@]2(O)CC1 [SPHAEROPSIDIN A]	2.1	Non-Toxic	–
COC1=CC(=O)[C@H](Cl)[C@H](O)[C@@H]1O	> 50	–	–
C=C[C@@]1(C)CCC2=C(C(=O)C(O)=C3C(C)(C)CCC[C@]23C(=O)O[C@H]2C(=O)C=C(OC)[C@@H](O)[C@H]2O)[C@H]1O	45.3	–	Non-Toxic
COC1=CC(=O)[C@@H]2O[C@@H]2[C@@H]1O	> 50	–	–
C=C[C@]1(C)C=C2[C@@H](O)[C@@]3(O)OC(=O)[C@@]4(CCCC(C)(C)[C@H]34)[C@@]2(O)CC1 [SPHAEROPSIDIN B]	> 50	–	–
C[S+]([O-])CCCCN=C=S (centres undefined) [SULFORAPHANE]	15.7	–	–
